Laboratory results: patent US20240294550A1, “8-OXA-3-AZABICYCLO[3.2.1]OCTANE COMPOUNDS OR SALT THEREOF, AND PREPARATION METHOD AND USE THEREOF” (LITTDD MEDICINES LTD, priority 2021, published 2024)
Structures can show the parent of a compound that is named as a salt.

The compounds below were run against ATR (Homo sapiens (Human), UniProt Q13535) (assay: ATR kinase inhibition assay (HTRF)). Conditions: p53 substrate, ATP 150 nM.
Type: biochemical
Description: This experiment adopted Homogeneous time-resolved fluorescence technology (HTRF®) of Cisbio Company for assay.
Experiment method: buffers were prepared as follows:
Preparation of solutions of the test compounds: The example compounds shown in the table below were prepared into solutions using DMSO as solvent, the stock solution typically being 10 mM. The maximum starting concentration in this experiment was 3 μM, DMSO 3-fold serial dilutions for concentrations, the serially diluted solution was added to each well of the corresponding 384-well plate (geriner bio-one, Cat #784075) to give final concentrations of 3000, 1000, 333, 111, 37, 12.3, 4.12, 1.37, 0.457, 0.152 nM, respectively, and the corresponding amount of DMSO was added to the additional wells to be used as negative or positive control wells, respectively.
The enzyme and substrate were separately dissolved and diluted in two tubes with the buffer prepared above at the following concentrations:
5 μL of the ATR protein solution from tube A was added to the compound-containing wells and the negative control wells in the assay plates using an electric multichannel pipettor, and the same volume of the prepared buffer (medium only, no enzyme) was added to the positive control wells. The plates were centrifuged for one minute at 1000 rpm, and then placed in an incubator at 25° C. for 15 minutes. 5 μL of the substrate mix solution from tube B was added to the positive control well, negative control well and the compound-containing well of the assay plates in the same manner, centrifuged and incubated at 25° C. for 90 minutes.
During the reaction, after ATR phosphorylated the substrate p53, two antibodies were added. Among them, anti-phospho-p53-Eu, as an energy donor, can specifically bind to the phosphorylation site of p53, while anti-GST-d2, as an energy receptor, can specifically bind to the GST-tagged p53. Upon excitation by a laser with certain wavelength (the excitation wavelength in this experiment is 340 nm), the energy donor can emit emission light of 615 nm, and when the energy donor and the energy receptor are close enough in space (that is, two antibodies are connected to p53 at the same time), energy transfer can occur between the energy donor and the energy receptor, so that the energy receptor can emit emission light of 665 nm. The two emission lights were detected by a plate reader, and the ratio of the signals at 665 nm and 615 nm was calculated. The IC50 of the samples tested can be obtained by plotting and calculation.
10 μL per well of the detection solution was added to the positive control, negative control and compound wells of the assay plate using an electric multichannel pipette, centrifuged and incubated overnight at 4° C., and read with the plate reader Envision 2104.
Compound inhibition rate was calculated using interpolation. The mean values of the positive and negative controls were calculated respectively, and the following formula was used to calculate the inhibition rates of the compounds:
Inhibition rate Minimum response+(Compound concentration ^Curve slope)*(Maximum response−Minimum response)/(Compound concentration^Curve slope+Half inhibition concentration ^Curve slope)
The IC50 value of each compound to enzyme activity was obtained.

ATR, sequence (Q13535 whole entry): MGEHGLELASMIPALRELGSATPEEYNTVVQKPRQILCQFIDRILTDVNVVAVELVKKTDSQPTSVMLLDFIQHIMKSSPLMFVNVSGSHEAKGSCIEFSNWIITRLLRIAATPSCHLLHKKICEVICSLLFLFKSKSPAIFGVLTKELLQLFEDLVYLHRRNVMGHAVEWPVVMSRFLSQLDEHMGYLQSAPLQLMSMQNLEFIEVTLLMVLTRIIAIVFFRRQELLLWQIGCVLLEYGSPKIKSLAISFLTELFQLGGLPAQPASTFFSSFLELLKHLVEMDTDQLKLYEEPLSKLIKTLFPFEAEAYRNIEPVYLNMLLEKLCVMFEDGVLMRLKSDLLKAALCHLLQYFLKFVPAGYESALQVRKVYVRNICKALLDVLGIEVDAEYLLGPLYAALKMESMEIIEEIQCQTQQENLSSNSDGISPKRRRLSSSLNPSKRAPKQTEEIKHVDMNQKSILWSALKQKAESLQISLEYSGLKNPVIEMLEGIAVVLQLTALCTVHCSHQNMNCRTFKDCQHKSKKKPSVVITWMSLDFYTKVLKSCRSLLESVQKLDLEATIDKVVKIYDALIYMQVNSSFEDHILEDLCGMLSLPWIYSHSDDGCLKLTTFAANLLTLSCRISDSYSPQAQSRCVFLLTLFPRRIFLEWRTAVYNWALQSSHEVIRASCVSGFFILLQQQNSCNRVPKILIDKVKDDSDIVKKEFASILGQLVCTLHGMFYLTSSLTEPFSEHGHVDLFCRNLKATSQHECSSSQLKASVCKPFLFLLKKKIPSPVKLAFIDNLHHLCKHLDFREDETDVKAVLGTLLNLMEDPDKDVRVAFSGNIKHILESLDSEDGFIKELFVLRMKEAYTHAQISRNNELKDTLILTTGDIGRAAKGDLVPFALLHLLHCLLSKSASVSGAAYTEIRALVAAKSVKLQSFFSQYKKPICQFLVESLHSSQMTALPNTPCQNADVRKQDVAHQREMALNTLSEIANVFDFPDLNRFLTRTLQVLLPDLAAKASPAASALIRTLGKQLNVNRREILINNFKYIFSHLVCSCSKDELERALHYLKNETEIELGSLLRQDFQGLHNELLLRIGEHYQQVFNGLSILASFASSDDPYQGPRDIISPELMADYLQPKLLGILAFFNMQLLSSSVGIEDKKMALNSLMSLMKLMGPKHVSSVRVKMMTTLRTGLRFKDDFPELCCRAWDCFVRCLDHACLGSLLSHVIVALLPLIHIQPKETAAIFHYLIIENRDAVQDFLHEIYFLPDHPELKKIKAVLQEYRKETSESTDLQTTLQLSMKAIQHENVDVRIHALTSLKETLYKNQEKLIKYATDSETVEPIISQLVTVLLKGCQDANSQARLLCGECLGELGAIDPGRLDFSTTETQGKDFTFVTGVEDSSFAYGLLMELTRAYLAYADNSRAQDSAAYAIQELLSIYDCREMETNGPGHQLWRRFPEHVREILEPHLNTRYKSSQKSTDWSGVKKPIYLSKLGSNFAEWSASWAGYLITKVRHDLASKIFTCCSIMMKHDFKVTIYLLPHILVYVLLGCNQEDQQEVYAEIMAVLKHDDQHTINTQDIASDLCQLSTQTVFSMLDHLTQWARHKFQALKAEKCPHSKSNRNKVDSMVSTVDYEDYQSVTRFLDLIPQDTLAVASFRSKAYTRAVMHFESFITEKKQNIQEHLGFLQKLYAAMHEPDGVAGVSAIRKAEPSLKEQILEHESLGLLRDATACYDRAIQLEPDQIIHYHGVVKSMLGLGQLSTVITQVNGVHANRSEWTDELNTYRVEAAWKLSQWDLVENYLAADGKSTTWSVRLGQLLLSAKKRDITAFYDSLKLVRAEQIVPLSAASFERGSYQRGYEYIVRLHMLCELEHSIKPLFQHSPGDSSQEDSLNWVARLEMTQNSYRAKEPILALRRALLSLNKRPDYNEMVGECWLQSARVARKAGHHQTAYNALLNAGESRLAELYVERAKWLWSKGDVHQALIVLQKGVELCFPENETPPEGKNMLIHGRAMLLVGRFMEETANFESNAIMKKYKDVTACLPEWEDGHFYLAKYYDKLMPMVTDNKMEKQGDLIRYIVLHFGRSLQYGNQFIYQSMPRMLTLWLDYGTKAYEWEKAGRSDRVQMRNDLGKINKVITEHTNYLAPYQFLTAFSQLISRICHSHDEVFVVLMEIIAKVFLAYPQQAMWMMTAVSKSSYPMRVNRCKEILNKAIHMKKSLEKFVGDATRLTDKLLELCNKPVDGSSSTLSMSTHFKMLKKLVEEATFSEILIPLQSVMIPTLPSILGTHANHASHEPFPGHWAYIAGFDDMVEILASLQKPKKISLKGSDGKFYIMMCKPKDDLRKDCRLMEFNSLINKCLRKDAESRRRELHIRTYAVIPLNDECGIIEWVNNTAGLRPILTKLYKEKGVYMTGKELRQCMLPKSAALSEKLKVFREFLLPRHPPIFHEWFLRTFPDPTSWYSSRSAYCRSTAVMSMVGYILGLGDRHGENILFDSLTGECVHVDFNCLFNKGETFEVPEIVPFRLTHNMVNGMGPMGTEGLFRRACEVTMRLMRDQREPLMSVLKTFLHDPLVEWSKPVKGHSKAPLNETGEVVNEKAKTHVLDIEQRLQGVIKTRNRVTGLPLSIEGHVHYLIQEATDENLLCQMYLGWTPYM
ATR, sequence (Q8WXE1 whole entry partner): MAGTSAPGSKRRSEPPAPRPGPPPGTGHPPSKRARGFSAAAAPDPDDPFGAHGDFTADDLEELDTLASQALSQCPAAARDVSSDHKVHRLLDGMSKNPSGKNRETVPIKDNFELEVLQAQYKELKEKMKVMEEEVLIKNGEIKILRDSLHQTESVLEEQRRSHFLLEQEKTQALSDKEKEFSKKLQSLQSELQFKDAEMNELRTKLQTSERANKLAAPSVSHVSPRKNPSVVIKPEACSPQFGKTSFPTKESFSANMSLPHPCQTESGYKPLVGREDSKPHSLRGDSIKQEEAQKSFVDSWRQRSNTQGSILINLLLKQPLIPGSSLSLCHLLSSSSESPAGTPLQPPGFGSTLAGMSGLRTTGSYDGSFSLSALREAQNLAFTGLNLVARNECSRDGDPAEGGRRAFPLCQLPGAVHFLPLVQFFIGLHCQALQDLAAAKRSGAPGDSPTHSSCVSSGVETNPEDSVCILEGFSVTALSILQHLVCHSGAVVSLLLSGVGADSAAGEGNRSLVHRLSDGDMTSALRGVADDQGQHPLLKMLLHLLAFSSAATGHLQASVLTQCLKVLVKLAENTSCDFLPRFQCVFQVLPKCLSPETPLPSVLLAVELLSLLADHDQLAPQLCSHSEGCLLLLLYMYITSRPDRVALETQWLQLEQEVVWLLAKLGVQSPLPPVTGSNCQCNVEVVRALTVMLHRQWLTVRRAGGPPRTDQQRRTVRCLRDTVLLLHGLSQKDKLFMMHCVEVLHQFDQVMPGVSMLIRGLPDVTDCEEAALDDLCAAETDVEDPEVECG

Question: Which IC50 does the source give for `c1cc(-c2ncc3c(N4CCOCC4)cc(N4CC5CCC(C4)O5)nn23)n[nH]1` [Example 7, 3-(4-morpholino-7-(1H-pyrazol-3-yl)imidazo[1,5-b]pyridazin-2-yl)-8-oxa-3-azabicyclo[3.2.1]octane] here?
Answer: The IC50 was 21.4 nM.

Question: `Cn1nc(-c2cc[nH]n2)c2nc(N3CC4CCC(C3)O4)cc(N3CC4CCC(C3)O4)c21` [Example 13, 3-(7-(8-oxa-3-azabicyclo[3.2.1]octan-3-yl)-1-methyl-3-(1H-pyrazol-3-yl)-1H-pyrazolo[4,3-b]pyridin-5-yl)-8-oxa-3-azabicyclo[3.2.1]octane] was tested. Which IC50 did it give?
Answer: The IC50 was 18 nM.

Question: For `c1cc(-n2ncc3c(N4CC5CCC(C4)O5)cc(N4CC5CCC(C4)O5)nc32)n[nH]1` [Example 12, 3-(6-(-8-oxa-3-azabicyclo[3.2.1]octan-3-yl)-1-(1H-pyrazol-3-yl)-1H-pyrazolo[3,4-b]pyridin-4-yl)-8-oxa-3-azabicyclo[3.2.1]octane], which IC50 is on record?
Answer: Its IC50 is 16.9 nM.

Question: Which IC50 does the source give for `OC1(c2cc(N3C[C@H]4CC[C@@H](C3)O4)nc3c(-c4ccn[nH]4)cnn23)CCOCC1` [Example 23, 4-(5-((1R,5S)-8-oxa-3-azabicyclo[3.2.1]octan-3-yl)-3-(1H-pyrazol-5-yl)pyrazolo[1,5-a]pyrimidin-7-yl)tetrahydro-2H-pyran-4-ol] here?
Answer: The IC50 was 85.5 nM.

Question: With `CC1CC(F)(F)CCN1c1cc(N2CC3CCC(C2)O3)nn2c(-c3cc[nH]n3)ncc12` (stereo not drawn) [Example 30, 3-(4-(4,4-difluoro-2-methylpiperidin-1-yl)-7-(1H-pyrazol-3-yl)imidazo[1,5-b]pyridazin-2-yl)-8-oxa-3-azabicyclo[3.2.1]octane] as the compound, how does the IC50 read?
Answer: Its IC50 is 5.2 nM.

Question: Which IC50 does the source give for `c1cc(-c2ncc3c(N4CCNCC4)cc(N4CC5CCC(C4)O5)nn23)n[nH]1` [Example 10, 3-(4-(piperazin-1-yl)-7-(1H-pyrazol-3-yl)imidazo[1,5-b]pyridazin-2-yl)-8-oxa-3-azabicyclo[3.2.1]octane formate] here?
Answer: Its IC50 is 145 nM.

Question: Which IC50 does the source give for `CC1CN(c2cc(N3CC4CCC(C3)O4)nn3c(-c4cc[nH]n4)ncc23)CCO1` (stereo not drawn) [Example 18, 3-(4-(2-methylmorpholino)-7-(1H-pyrazol-3-yl)imidazo[1,5-b]pyridazin-2-yl)-8-oxa-3-azabicyclo[3.2.1]octane] here?
Answer: Its IC50 is 50.8 nM.

Question: With `Cn1nccc1-c1cc(N2CC3CCC(C2)O3)nn2c(-c3cc[nH]n3)cnc12` [Example 27, 3-(8-(1-methyl-1H-pyrazol-5-yl)-3-(1H-pyrazol-3-yl)imidazo[1,2-b]pyridazin-6-yl)-8-oxa-3-azabicyclo[3.2.1]octane] as the compound, how does the IC50 read?
Answer: Its IC50 is 149 nM.

Question: With `c1cc(-c2ncc3c(N4CCCCC4)cc(N4CC5CCC(C4)O5)nn23)n[nH]1` [Example 17, 3-(4-(piperidin-1-yl)-7-(1H-pyrazol-3-yl)imidazo[1,5-b]pyridazin-2-yl)-8-oxa-3-azabicyclo[3.2.1]octane] as the compound, how does the IC50 read?
Answer: Its IC50 is 32 nM.
